Experiments:
adherent human monocytes = assay: uptake of dideoxynucleotides; format: cell-based; conditions: 37°C, drug 1 uM
Method: Uptake of ₃H-deoxyctidine triphosphate (³H-dCTP) was used as an indicator of the uptake of vesicle contents by cells. Uptake experiments were done by plating 5 × 10⁶ monocytes in each well of a 6-well microtiter plate (Costar) and adding reagents one or two days later. Incubations were done in DMEM-GG-FCS at 37°C. The rate of increase of dCTP content in the cells over a 9-hour period (Table 7) averaged 0.29 pmole/million cells/hr with liposomes containing 4 mM EPC. Other experiments established that ddCTP and ddCMP are not readily taken up by the cells (Table 9).

[1] = leakage from liposomes at 4°C; format: physicochemical; conditions: liposomes of Example 1 or similar liposomes
in vitro = in vitro ADME
Method: When the same incubations were done in the absence of monocytes, the results were essentially identical.
Studies were conducted under conditions mimicking those of anti-viral tests. ddCMP: dideoxycytidine monophosphate. Data points represent integrals under HPLC peaks from gradient elution on a VYDAC nucleotide column.

[2] = capture / encapsulation volume of ddCTP liposomes; format: physicochemical
Method: The amount of lipid in the preparation was determined from ¹⁴C counts (¹⁴C-cholesteryl oleate) in a standard beta counting scintillation fluid. The amount of ddCTP was assessed from the optical density at 280 nm. Samples for optical density reading were prepared by adding 0.9 ml of 65:25 chloroform ethanol solution to 0.5 ml of the sample. This eliminated light scatter that would otherwise have resulted from the presence of lipid particles. Negative staining electron microscopy was performed using glow-discharged formvar-carbon coated grids and sodium phosphotungstate. Release of ddCTP from liposomes was assessed by dialysis of samples against phosphate buffered saline. The integrity of ddCTP was assessed by high-performance gradient-elution anion exchange chromatography.
The amounts of lipid and ddCTP in the preparation were calculated from ¹⁴C and ³H counts, respectively. Encapsulation was generally in the range of 1.5 - 2 microliters/micromole EPC. The size distribution of liposomes was determined by quasi-elastic light-scattering (QELS) using an N4MD multiple-angle submicron particle size analyzer (Coulter, Hialeah, Fla., USA). […] The profile is substantially similar to that of a fresh preparation. The weight average diameter was about 215 nm with the coefficient of variation being about 100 nm.

[3] = trypan blue exclusion test; format: cell-based; conditions: human, 8.e6 and u.1 cells; at all doses; read-out: viable cells (trypan blue exclusion)
Excerpt: Tritiated thymidine uptake was used to assess toxic effects of ddCTP liposomes on the lymphoid (8.E6) and promonocytic (U.1) clones. […] As judged by trypan blue exclusion test, the cells remained more than 90% viable at all doses.

HIV-1 (Ba-L) = assay: inhibition of HIV proliferation in monocytes (p24 antigen ELISA); format: cell-based; conditions: HIV-infected human monocytes; compared with ddCTP liposomes
monocytes [4] = assay: percent lysis of Candida albicans by monocytes; format: cell-based, Human; conditions: effect on monocyte function
Method: (§1) Human peripheral blood mononuclear cells were obtained by standard procedures employing continuous flow cell separation (leukapheresis), such as described in Wahl, et al., Cellular Immunol. 85:373-383 (1984). The preparation was diluted in phosphate-buffered saline and layered onto gradients of Ficoll-Paque (Pharmacia-PL Biochemicals, Piscataway, N.J., USA). After centrifugation, mononuclear cells were pipetted from the interface, washed, and suspended in DMEM-GG-FCS. They were then fractionated by countercurrent centrifugal elutriation. The procedure comprises the Beckman elutriation system including a J-21 Beckman Centrifuge, a JE-6 elutriator rotor, a stroboscope, and a Masterflex pump and pumphead. The cells were loaded into the rotor and fractionated by elution at increasing flow rates. Fractions 7 and 8, highly enriched for monocytes, were pooled for use.

monocytes [5] = assay: production of prostaglandin E2 by monocytes; format: cell-based, Human; conditions: effect on monocyte function
Method: as §1

[6] = target: T1, HIV reverse transcriptase (Human immunodeficiency virus type 1 group M subtype B, UniProt P03367); assay: reverse transcriptase assay on supernatant of chronically HIV-producing cells; format: cell-based; conditions: for activity at 10 µg/mL: dose 10.0 micrograms/ml; for activity at 0.01 µg/mL: dose 0.01 micrograms/ml; for activity at 0.1 µg/mL: dose 0.1 micrograms/ml; for activity at 1 µg/mL: dose 1.0 micrograms/ml
T1 construct: endogenous in cells; host or cells: U.1 (clone of promonocytic U937) and 8.E6 (clone of lymphoid A.301), chronically HIV-producing
Method: Liposomes were tested for toxic effect on two types of cells which chronically produce HIV. One clone (8.E6) was derived from the lymphoid cell line A.301; the other clone (U.1) was derived from the promonocytic line U937. Cells (1×10⁶/well) in RPMI medium with 10% fetal calf serum were pipetted into a flat-bottom 96-well microtiter plate. To each well was added 50 microliters of solution containing ddCTP-liposomes, empty liposomes, free ddCTP or phosphate buffered saline. Fifty microliters of phorbol myristyl acetate (PMA) was then added to each well to a final concentration of 10⁻⁹ M for stimulation, or else 50 microliters of saline was added for non-stimulated configurations. The plates were incubated at 37°C in 7% CO₂ for about 48 hours. 100 microliters of supernatant was then taken from each well to analyze for reverse transcriptase (RT) activity using polyadenylate and oligo-deoxythymidine. To perform the RT assay, 10 microliters of supernatant containing RT was added to a cocktail containing poly A, oligo dT (Pharmacia, Inc. Piscataway, N.J., USA) MgCl₂, and ³²P-dTTP (Amersham) and incubated for 2 hours at 37°C. Ten microliters of the cocktail was then spotted onto DE81 paper, dried, and washed in 1X saline sodium citrate buffer. The paper was then dried, cut and counted on a Beckman LS 7000 scintillation counter.

[7] = PMA-stimulated (1 nM) U.1 cells, normalized by average of empty liposome controls
[8] = U.1 cells, no PMA, relative to controls with no drug

SMILES: Nc1ccn([C@H]2CC[C@@H](COP(=O)(O)OP(=O)(O)OP(=O)(O)O)O2)c(=O)n1 [ddCTP, 2ʹ,3ʹ-dideoxycytidine-5ʹ-triphosphate]
- pmole drug/1 million cells (mean) (adherent human monocytes; 0. h): 0.15 pmole drug/1 million cells
- pmole drug/1 million cells (mean) (adherent human monocytes; 0.33 h): 0.09 pmole drug/1 million cells
- pmole drug/1 million cells (mean) (adherent human monocytes; 1.00 h): 0.09 pmole drug/1 million cells
- pmole drug/1 million cells (mean) (adherent human monocytes; 3.00 h): 0.11 pmole drug/1 million cells
- pmole drug/1 million cells (mean) (adherent human monocytes; 6.00 h): 0.33 pmole drug/1 million cells
- pmole drug/1 million cells (mean) (adherent human monocytes; 9.00 h): 0.43 pmole drug/1 million cells
- pmole drug/1 million cells (mean) (adherent human monocytes; 20.00 h): 0.66 pmole drug/1 million cells
- t1/2 for leakage from liposomes [1]: > 60 h
- conversion to ddCMP (in vitro): largely converted to ddCMP
- fraction present as ddC (in vitro): 23%
- Percent of total drug 3H as ddCTP (in vitro; 10% fetal calf serum medium, 0.5 h): 39.6%
- Percent of total drug 3H as ddCTP (in vitro; serum-containing medium with cells, 4 h): 1.4%
- Percent of total drug 3H as ddCTP (in vitro; serum-containing medium with cells, 6 h): 1.4%
- Percent of total drug 3H as ddCTP (in vitro; serum-containing medium without cells, 0.75 h): 20.3%
- Percent of total drug 3H as ddCTP (in vitro; serum-containing medium without cells, 1.5 h): 19.5%
- Percent of total drug 3H as ddCTP (in vitro; serum-containing medium without cells, 4 h): 2.7%
- Percent of total drug 3H as ddCTP (in vitro; serum-containing medium without cells, 6 h): 0.6%
- remaining at 72 h (in vitro; serum-containing medium without cells, Percent of total drug 3H as ddCTP): 0%
- calculated capture ([2]; Example 1 liposomes (DPPC/DPPG/cholesterol)): 2.6 microliters/micromole lipid
- Encapsulation ([2]; Example 2 liposomes (EPC/PS/cholesterol)): 1.5 - 2 microliters/micromole EPC
- viability [3]: > 90%
- activity against p24 expression (HIV-1 (Ba-L)): active at similar concentrations
- percent lysis of Candida albicans (monocytes [4]): No consistent effects
- production of prostaglandin E2 (monocytes [5]): No consistent effects
- activity at 10 µg/mL ([6]; 48 h, U.1 cells, no PMA, relative to controls with no drug): 69 ± 21%
- activity at 0.01 µg/mL [6, 7]: 84%
- activity at 0.1 µg/mL [6, 7]: 96%
- activity at 1 µg/mL [6, 7]: 75%
- activity at 10 µg/mL [6, 7]: 75%
- activity at 0.01 µg/mL [6, 8]: 67 ± 19%
- activity at 0.1 µg/mL [6, 8]: 80 ± 12%
- activity at 1 µg/mL [6, 8]: 61 ± 4%

Reference: EP0286418A1, “Anti-retroviral agents and delivery systems for the same” (priority 1987, dated 1988)
